This note sets out measurements from patent US20070292403A1, “Methods of treating a neurological disorder with creatine monohydrate” (priority 2006, published 2007).

Format in all cases: in vivo, human
Experiment [1] has as its system serum 8-hydroxy-2′-deoxyguanosine (8OH2′dG). Nature of the experiment: Example 1: serum 8OH2'dG biomarker of oxidative injury to DNA. Conditions: baseline to 16 weeks, 8 g/day; SD=13.93; placebo increase 5.87; p<0.0042. An excerpt:
Study protocol. Subjects were screened within 25 days of randomization (baseline visit). Screening included assessment of eligibility criteria, medical history, physical examination, Unified Huntington's Disease Rating Scale (UHDRS), EKG, DNA analysis, complete blood count, chemistry panel, and urinalysis. Subjects were on study drug (creatine or placebo) for 16 weeks, followed by an 8-week washout. Study visits occurred at baseline, weeks 8, 16, and 24 with telephone contacts at weeks 1, 10 and 20. Physical examination was done at screening and week 16. UHDRS scores, vital signs, adverse event assessment, and safety laboratory tests were repeated at all visits. Blood was collected for serum creatine levels and serum 8-hydroxy-2′-deoxyguanosine (8OH2′dG), a measure of oxidative injury affecting DNA. The later was analyzed in the samples from two sites. Magnetic resonance spectroscopy (MRS; STEAM; TR/TE=6000/20 milliseconds) of frontal cortex (voxel size=56 cc) and occipital cortex (voxel size=18 cc) performed at one site was analyzed for this report. Subject compliance was assessed by wafer counts.

Experiment [2] concerns subjects with early Parkinson's disease (PD). Kind of experiment: Example 2: randomized double-blind futility trial, change in total UPDRS. The method, then:
Study Design and Randomization. This example was a single arm futility study designed to assess creatine and minocycline. A placebo arm for calibration was included in the example. Eligible subjects were randomly assigned in a 1:1:1 fashion to receive 1) 10 g/day of creatine monohydrate and placebo minocycline, 2) placebo creatine monohydrate and 200 mg/day of minocycline, or 3) placebo creatine monohydrate and placebo minocycline. The primary futility analysis was at 12 months of follow-up, but each subject was followed for 18 months for additional safety information. Subjects and investigators were kept blinded to treatment group.
Participants. […] Two of the three cardinal manifestations of PD (tremor, rigidity, and bradykinesia) were required; these findings had to be asymmetric. The diagnosis of PD must have been made within 5 years of randomization. Women of childbearing potential were required to use adequate birth control and have a negative pregnancy test at baseline. Subjects were excluded if they had any secondary causes of parkinsonism, such as drug induced parkinsonism or structural lesions; had atypical parkinsonian syndromes; gait freezing or impairment in postural reflexes; had prior stereotaxis surgery for PD; used creatine, minocycline, or any investigational agent within 90 days prior to randomization; had known hypersensitivity to creatine or minocycline; used CoQ10 in doses greater than 300 mg 90 days prior to randomization; or had any clinically significant medical condition that could interfere with the subject's ability to safely participate in the study or be followed.
Dosages. Creatine was administered as 5 g sachets mixed with 8 ounces of liquid taken twice a day and minocycline was administered as 100 mg capsules taken twice a day. Both were taken with meals.
Outcome measures. […] Disability was assessed by the sight investigator, based on impairment in ambulation, activities in daily living, and occupational status. […] Both the site investigator and medical monitors assessed the potential relationship between SAEs and study drug. […]

In a further experiment the test system is serum 8OH2′dG. Kind of experiment: Example 3: serum 8OH2'dG suppression in dose escalation. On the procedure: A two-phase open-label study was conducted to better determine an optimal dose of creatine symptomatic subjects with Huntington's disease. A dose-escalation study (10-40 grams per day) was conducted to determine the maximally tolerated dose (MTD) followed by a de-escalation phase to assess whether brain and serum levels of creatine might be maximal at doses lower than the MTD. Ten subjects were enrolled and followed prospectively for two weeks at each done level increasing in 5-gram increments during dose escalation that lasted 13 weeks. Assessments at each visit included UHDRS, EKG, vital signs, clinical safety and research labs. MRI spectroscopy was conducted prior to baseline at peak done (40 grams) and one month after de-escalation to either 30 or 15 grams daily. To determine an optimal dose, pharmacokinetic as well as clinical data were considered. Once the maximal dose was reached, subjects were assigned one of two lower doses previously taking (15 grams a day (n=5) or 30 grams a day (n=5)). Serum creatine was assessed at baseline, at the end of each 2-week dose escalation step and at the end of the de-escalation phase to assess the correspondence between serum and brain levels of creatine at steady state.

With `CN(CC(=O)O)C(=N)N` [Creatine, creatine monohydrate], the “Average reduction of serum 8OH2′dG” value in experiment [1] is recorded as 9.11 pg/mL. The “Mean (SD) change in total UPDRS” value in experiment [2] (baseline to 12 months or time symptomatic therapy needed, creatine 10 g/day, minocycline 200 mg/day, worst change score imputed) is 5.6 (8.69). Further, the Futility analysis outcome in experiment [2] (threshold 7.46 (30% less than 10.65 DATATOP historical progression)) is recorded as “could not be rejected as futile”. The “Doses associated with maximum suppression of serum 8OH2′dG, levels similar to normal controls” value in the experiment with serum 8OH2′dG was “greater than 25 grams daily”. Also, the “Serum 8OH2′dG” value in the experiment with serum 8OH2′dG (greater than seen with 8 grams per day) is given as “dose dependent suppression”.
